Literature values as cited in article PMC12737490, “Beta Toxins Isolated from the Scorpion Centruroides hirsutipalpus (Scorpiones; Buthidae) Affect the Function of Sodium Channels of Mammals” (Toxins, 2025).

Columns and labels:
hNav1.6 channel = conditions: ref [13]; cited from earlier work
Text: When comparing the sequence of the new toxins β-NaScTxs from C. hirsutipalpus with sequences from different scorpions (Figure 3A) using BLASTp version 2.11.0, it is shown that the sequence of the toxin Chirp7 is 100% identical to the sodium toxin Ct1a (UniProt accession P18926) from the C. tecomanus scorpion.

Nav1.6 = conditions: ref [34]; cited from earlier work
Text: (§1) The Chirp9 peptide in the venom of C. hirsutipalpus has an abundance of 2.8%. It has an experimental mass of 7790.1 Da and a theoretical mass of 7790.9 Da. The sequence of Chirp9 (Figure 3B) shares 97% identity with the Cl13 toxin from the C. limpidus scorpion (UniProt C0HK69) and differs by only two amino acid substitutions: L5I and Q54A. These substitutions could modulate the toxic properties of the venom through structural alterations in the peptide that influence its interaction with target sites, possibly leading to increased potency or stability. The Cl13 toxin is found in C. limpidus ve ...

Nav1.2 = conditions: ref [34]; cited from earlier work
Text: as §1

Nav1.4 = conditions: ref [34]; cited from earlier work
Text: as §1

Nav1.5 = conditions: ref [34]; cited from earlier work
Text: as §1

sodium channel = conditions: stated as reported earlier; no reference in the sentence; cited from earlier work

Substance	effect on hNav1.6 channel (hNav1.6 channel)	effect on sodium currents (Nav1.6)	effect on sodium currents (Nav1.2)	effect on sodium currents (Nav1.4)	effect on sodium currents (Nav1.5)	effect on sodium channel inactivation kinetics (sodium channel)
Ct1a: sodium toxin Ct1a from the C. tecomanus scorpion, sequence 100% identical to Chirp7	altering channel activation by lowering the action potential and decreasing the current amplitude					
Cl13: beta toxin from the C. limpidus scorpion, 97% identity with Chirp9		modifies sodium currents	modifies sodium currents	modifies sodium currents	modifies sodium currents	slow down the kinetics of sodium channel inactivation
